The text below walks through data of patent US10730857B2, “Benzocyanine compounds” (Pierce Biotechnology, Inc., priority 2011, dated 2020).

The nature of series [1]: In vivo imaging with dye-labeled anti-CEA antibody. Conditions: dye conjugated to mouse anti-CEA antibody; i.v.; predicted results. Set-up: species or system nu/nu mice. On the procedure: The inventive compounds are used for in vivo imaging as described in J. Gastrointest Surg (2008) 12:1938-1950. Briefly, human pancreatic cell lines are maintained in media supplemented with penicillin/streptomycin at 37° C. with 5% CO2. Mouse anti-CEA antibody and Control Mouse IgG (in PBS with 0.20% sodium azide) are conjugated to V08-15173. The dye is reconstituted at 10 mg/ml in DMF and then added to the antibody at a 10 molar excess. The reaction is carried out for one hour at room temperature. The samples are then dialyzed against 3×2 L of PBS. The cell lines are plated in 96-well plates at 5×10^4 cells per well. After 48 hours culture in appropriate media, the cells are incubated with 1 μg of V08-15173 labeled anti-CEA antibody or V08-15173-labeled control mouse IgG for four hours at 37° C. The cells are then washed three times with PBS and then imaged with an inverted Nikon De-485 microscope and Spot camera RD.
Surgical procedures and intravital imaging are performed with the animals anesthesized by intramuscular injection of 0.02 ml of 50% ketamine, 38% xylazine and 12 acepromazine maleate. Human pancreatic and colorectal cancer cell lines are harvested by trypsinization and washed twice with serum free medium […]. Cells (1×10^6 in 100 μl of serum-free media) are injected subcutaneously within 30 minutes of harvesting over the right flank in female nu/nu mice between 4-6 weeks of age. Subcutaneous tumors are allowed to grow for 7-14 days until they reached diameter of 1-2 mm prior to the delivery of conjugated antibody. For ASPC-1 implants, the cells are harvested by trypsinization and washed 3× in serum-free media. […]. The cells are resuspended in serum-free media at 5×10^6/ml. A volume of 200 μl of the cell suspension is then injected directly into the peritoneal cavity within 30 minutes of harvesting.
For antibody delivery, one to two weeks after subcutaneous, orthotopic, or intraperitoneal tumor implantation, animals are given intravenous (i.v.) injection of either conjugated anti-CEA or conjugated control IgG antibody diluted in PBS to a final volume of 100 μl. All i.v. injections are done via the tail vein. For the dose-response experiment, the antibody dose is 75 μg. For the in vivo time course, the animals are anesthesized and imaged at 30 min, 1, 2, 6, 24 hours and 8 and 15 days after systemic antibody delivery.
The inventive compounds are used for in vivo imaging as described in J. Gastrointest Surg (2008) 12:1938-1950. Briefly, human pancreatic cell lines are maintained in media supplemented with penicillin/streptomycin at 37° C. with 5% CO2. Mouse anti-CEA antibody and Control Mouse IgG (in PBS with 0.20% sodium azide) are conjugated to 779 Compound 1. […]

Series [2] relates to lamin A in U20S cells. Put plainly: Immunofluorescence, mouse anti-lamin A, U20S cells (FIG. 16). Type of series: cell-based. Conditions: FIG. 16. On the procedure:
The inventive compounds and commercial dye were evaluated for immunofluorescence in a second cell based assay using the following protocol. Frozen U20S cell plates stored at −20° C. were placed overnight at 4° C. Storage buffer (PBS) was removed and the cells were permeabilized for 15 min (100 μl/well) with 0.1% Triton-X100 in 1×PBS buffer. Plates were blocked for 30 min in 2% BSA in 1×PBS-0.1% Trion-X100. Primary antibodies diluted in 2% BSA in 1×PBS-0.1% Trion-X100 were added to the plates (column 1-11; column 12 included only blocker) and incubated five hours at room temperature. Mouse anti-lamin A was added at 2 μg/ml and rabbit anti-lamin B1 was added at 4 μg/ml. After incubation, the antibody solution was removed from the plates and the plates were washed PBS-0.5% Tween-20 (2×100 μl/well). Next, GAM and GAR secondary antibodies labeled with DyLight 680-NHS, DyLight 680B-NHS, 679 Compound 1-NHS, and Cy5.5 Mono Ester were diluted to 4 μg/ml in PBS and incubated with the cells for one hour at room temperature. GAM and GAR conjugated to DyLight 680-NHS, DyLight 680B-NHS, 679 Compound 1-NHS, and Company B Compound at 10× molar excess were diluted to 4 μg/ml in PBS and then serially diluted 1:1 in the plate to the following concentrations: 2 μg/ml, 1 μg/ml, 0.5 μg/ml, 0.25 μg/ml, 0.125 μg/ml and/or 0.0625 μg/ml. The plates were washed 3× with 100 μl/well PBS, and Hoechst stain diluted to 0.1 μg/ml in PBS was added to each well (100 μl/well). The plates were scanned on ArrayScan Plate Reader for imaging and quantitation.

Series [3] in a line: Absorbance/emission spectral properties and fluorescence intensity of the dyes. Type of series: physicochemical. On the procedure: Emission/excitation profiles for inventive and commercial compounds was determined by reconstituting the compounds in DMF at 10 mg/ml and then diluting in PBS buffer pH 7.2 to 10 μg/ml.
Where [4] appears, read: first property table of Example 6, NHS/mono ester forms.
[5] abbreviates: second property table of Example 6, NHS ester forms.

Consider `COCC[N+]1=C(/C=C/C=C/C=C/C=C2/N(CCCCCC(=O)O)c3ccc4c(S(=O)(=O)[O-])cc(S(=O)(=O)O)cc4c3C2(C)C)C(C)(CCCS(=O)(=O)O)c2c1ccc1c(S(=O)(=O)O)cc(S(=O)(=O)O)cc21` (stereo not drawn) [779 Compound 1, 6-((E)-2-((2E,4E,6E)-7-(3-(2-methoxyethyl)-1-methyl-6,8-disulfonato-1-(3-sulfonatopropyl)-1H-benzo[e]indol-3-ium-2-yl)hepta-2,4,6-trien-1-ylidene)-1,1-dimethyl-6,8-disulfonato-1H-benzo[e]indol-3(2H)-yl)hexanoate], for which, in series [1], the “Ex vivo analysis of the vital organs” value was “presence of dye predominantly in the liver with some signal detected in the spleen intestines and lungs”; the “post-experiment surgical exposure: accumulation of dye” value was “accumulation of dye in the liver, bladder, and a region of inflammation in the subcutaneous tissue”.

As for Cy5.5 [reference compound], the “Mean Total Intensity 2X” value in series [2] (GAM conjugated at 2X molar excess) amounted to 211945. In series [2] (GAM conjugated at 3X molar excess), the “Mean Total Intensity 3X” value is listed as 342208. Moreover, the “Mean Total Intensity 4X” value in series [2] (GAM conjugated at 4X molar excess) is on record as 451111.

As for “2-{(1E,3E)-5-[3-(5-Carboxypentyl)-1,1-dimethyl-6,8-disulfo-1,3-dihydro-benzo[e]indol-(2E)-ylidene]-penta-1,3-dienyl}-3-(2-methoxy-ethyl)-1-methyl-6,8-disulfo-1-(3-sulfopropyl)-1H-benzo[e]indolium [679 Compound 1/1 (isomer 2)]”, in series [3] (PBS), the “UV-vis λmax” value was 679 nm and the λem was 698 nm.

In series [3] (setting [4]), `COCC[N+]1=C(/C=C/C=C/C=C2/N(CCCCCC(=O)ON3C(=O)CCC3=O)c3ccc4c(S(=O)(=O)[O-])cc(S(=O)(=O)O)cc4c3C2(C)C)C(C)(CCCS(=O)(=O)O)c2c1ccc1c(S(=O)(=O)O)cc(S(=O)(=O)O)cc21` (stereo not drawn) [679 Compound 1-NHS] showed an Em of 698 nm and an Ex of 679 nm. In addition, in series [3] (setting [5]), the Em is 698 nm and the Ex was found to be 679 nm.

Regarding `COCC[N+]1=C(/C=C/C=C/C=C2/N(CCCCCC(=O)O)c3ccc4c(S(=O)(=O)[O-])cc(S(=O)(=O)[O-])cc4c3C2(C)C)C(C)(CCCS(=O)(=O)[O-])c2c1ccc1c(S(=O)(=O)[O-])cc(S(=O)(=O)[O-])cc21.[Na+].[Na+].[Na+].[Na+]` (single isomer, unassigned; isomer 1) [679 Compound 1/1 (isomer 1), 2-{(1E,3E)-5-[3-(5-Carboxypentyl)-1,1-dimethyl-6,8-disulfo-1,3-dihydro-benzo[e]indol-(2E)-ylidene]-penta-1,3-dienyl}-3-(2-methoxy-ethyl)-1-methyl-6,8-disulfo-1-(3-sulfopropyl)-1H-benzo[e]indolium], the “UV-vis λmax” value in series [3] (PBS) stood at 679 nm.
